# Laboratory results: article PMC5818615, “Use of HuH6 and other human-derived hepatoma lines for the detection of genotoxins: a new hope for laboratory animals?” (Archives of Toxicology, 2017)
# Like-named read-outs stand apart in the source and are kept apart here. Marks after values point to notes of the source that are not given here.
# How the values were obtained:
# HepaRG cells [1] = conditions: ref Le Hegarat et al. [2014]; cited from earlier work
# p53 gene = test: Induction of p53 gene expression (RT-qPCR) in liver cell lines; format: cell-based, human; conditions: 30 µM B(a)P for 24 h
# Protocol: (§1) The expression of the p53 gene in the different cell lines was analyzed using real-time quantitative PCR (RT-qPCR) according to the description of Straser et al. ([2013]). The protein was quantified by Western blotting as described by Pezdirc et al. ([2013]).
# [2] = system: primary human hepatocytes; conditions: cited from earlier work
# p53 protein = test: Induction of p53 protein expression (Western Blot) in liver cell lines; format: cell-based, human; design: key to P53 protein expression (Western Blot) Induced: No expression is indicated with −; background expression with +; induced expression with ++; highly induced expression with +++; conditions: for P53 protein expression (Western Blot) Induced: 30 µM B(a)P for 24 h
# Protocol: as §1
# HepaRG cells [3] = system: HepaRG cells
# Protocol: (§2) The SCGE experiments were conducted as described in an international guideline (Tice et al. [2000]). Reagents for the assays (lysis solution and alkaline electrophoresis buffer) and agarose-coated slides were prepared according to Collins and Dusinska ([2009]).
# (§3) Briefly, cells were sub-cultured in 1.0 ml medium in 24–well tissue-culture plates (Sarstedt Inc., Newton, NC, USA). After 24 h, the media were changed and the cells exposed to different concentrations of the test compounds or to the solvent controls (PBS or DMSO). […] To terminate the treatment, the cells were washed twice with PBS (1.0 ml), trypsinized (100 µl T/E per well, 4 min) and then resuspended in 400 µl culture medium containing FBS. Subsequently, the suspensions were transferred to Eppendorf tubes and centrifuged (200g, 5 min). Cell pellets were resuspended in cold PBS.
# (§4) In all experiments, acute toxic effects were determined with a CASY® Cell Counter and Analyzer System (Schärfe-System GmbH, Reutlingen, Germany) (Lindl et al. [2005]). SCGE assays were only performed when the viability of the cultures was ≥ 70% (Koppen et al. [2017]). Per experimental point, two cultures were set up in parallel and from each one slide with two separate gels (30,000 cells/gel) was prepared. After unwinding (40 min, pH > 13) and electrophoresis (30 min, 0.75 V/cm, ~ 300 mA, 4 °C, pH > 13), 50 cells were evaluated per gel (200 cells per experimental point). As an endpoint, we determined the tail intensities (“% DNA in tail”) with a computer-aided system Comet Assay IV (Perceptive Instruments, Bury St Edmunds, UK), which is at present the most widely used parameter (Collins et al. [2008]; Moller [2006]). For each gel, the median of the tail intensity was calculated.
# Hep3B cells = system: Hep3B cells
# Protocol: as §2, §3, §4
# HuH7 cells = system: HuH7 cells
# Protocol: as §2, §3, §4
# [4] = system: human derived liver cell lines
# Protocol: as §2, §3, §4
# SNU-449 cells = system: SNU-449 cells
# Protocol: as §2, §3, §4
# SNU-398 cells = system: SNU-398 cells
# Protocol: as §2, §3, §4
# JHH6 cells = system: JHH6 cells
# Protocol: as §2, §3, §4
# HepG2 cells = system: HepG2 cells
# Protocol: as §2, §3, §4
# PLC/PRF cells = system: PLC/PRF cells
# Protocol: as §2, §3, §4
# HCC 1.2 cells = system: HCC 1.2 cells
# Protocol: as §2, §3, §4
# SK-Hep1 cells = system: SK-Hep1 cells
# Protocol: as §2, §3, §4
# WRL68 cells = system: WRL68 cells
# Protocol: as §2, §3, §4
# HuH6 cells = system: HuH6 cells
# Protocol: as §2, §3, §4
compound,measurement,setting,value
"Cc1ccc(N)cc1N [2,4-diaminotoluene]",Result of SCGE experiments (in words),HepaRG cells [1],negative results
CC(=O)Nc1ccc2c(c1)Cc1ccccc1-2 [2-acetylaminofluorene],Result of SCGE experiments (in words),HepaRG cells [1],negative results
"c1ccc2c(c1)cc1ccc3cccc4ccc2c1c34 [B(a)P, benzo(a)pyrene]",P53 gene expression (RT-qPCR) Induced,"p53 gene; HCC 1.2 cells, background 1",1.50 ± 0.33
same,P53 gene expression (RT-qPCR) Induced,"p53 gene; Hep3B cells, background 0",0
same,P53 gene expression (RT-qPCR) Induced,"p53 gene; HepG2 cells, background 1",1.48 ± 0.18
same,P53 gene expression (RT-qPCR) Induced,"p53 gene; HepaRG cells, background 1",0.87 ± 0.14
same,P53 gene expression (RT-qPCR) Induced,"p53 gene; HuH6 cells, background 1",1.26 ± 0.01
same,P53 gene expression (RT-qPCR) Induced,"p53 gene; HuH7 cells, background 1",1.13 ± 0.01
same,P53 gene expression (RT-qPCR) Induced,"p53 gene; JHH6 cells, background 1",1.00 ± 0.03
same,P53 gene expression (RT-qPCR) Induced,"p53 gene; PLC/PRF cells, background 1",0.89 ± 0.05
same,P53 gene expression (RT-qPCR) Induced,"p53 gene; SK-Hep1 cells, background 1",1.04 ± 0.12
same,P53 gene expression (RT-qPCR) Induced,"p53 gene; SNU-398 cells, background 1",1.03 ± 0.15
same,P53 gene expression (RT-qPCR) Induced,"p53 gene; SNU-449 cells, background 1",0.95 ± 0.03
same,P53 gene expression (RT-qPCR) Induced,"p53 gene; WRL68 cells, background 1",0.96 ± 0.03
same,DNA migration in comet assay,"[2]; primary liver cells, 50 µM, 3 h, statistically not analyzed, ref Monteith and Vanstone [1995]",increase of DNA migration
same,Sensitivity of primary hepatocytes compared with HepG2,[2]; ref Wilkening et al. [2003],no difference
same,P53 protein expression (Western Blot) Induced,"p53 protein; HCC 1.2 cells, background +, mutated p53",+
same,P53 protein expression (Western Blot) Induced,"p53 protein; Hep3B cells, background −",−
same,p53 protein induction (in words),"p53 protein; HepG2, B(a)P treatment for 24 h",induced
same,P53 protein expression (Western Blot) Induced,"p53 protein; HepG2 cells, background +",+++
same,P53 protein expression (Western Blot) Induced,"p53 protein; HepaRG cells, background +",+
same,p53 protein induction (in words),"p53 protein; HuH6, B(a)P treatment for 24 h",induced
same,P53 protein expression (Western Blot) Induced,"p53 protein; HuH6 cells, background +",++
same,P53 protein expression (Western Blot) Induced,"p53 protein; HuH7 cells, background +",+
same,P53 protein expression (Western Blot) Induced,"p53 protein; JHH6 cells, background +",+
same,P53 protein expression (Western Blot) Induced,"p53 protein; PLC/PRF cells, background +",+
same,P53 protein expression (Western Blot) Induced,"p53 protein; SK-Hep1 cells, background +",+
same,P53 protein expression (Western Blot) Induced,"p53 protein; SNU-398 cells, background +, mutated p53",+
same,P53 protein expression (Western Blot) Induced,"p53 protein; SNU-449 cells, background +",+
same,P53 protein expression (Western Blot) Induced,"p53 protein; WRL68 cells, background +",+
"OO [H2O2, hydrogen peroxide]",Sensitivity towards H2O2-induced DNA damage,HepaRG cells [3],by far less sensitive
N-nitrosodimethylamine [NDMA],Sensitivity of primary hepatocytes compared with HepG2,[2],substantially stronger effects
same,% DNA in tail,Hep3B cells,0.57 ± 0.21 0.62 ± 0.45 0.92 ± 0.45 0.61 ± 0.47%
same,% DNA in tail,HuH7 cells,0.61 ± 0.35 0.69 ± 0.48 0.77 ± 0.60 3.01 ± 2.11 %
same,Result of SCGE experiments (in words),HuH7 cells,induction of DNA damage was found
same,Doses required to cause significant effects in SCGE assays,[4],≥ 100 mM
same,Number of the twelve lines sensitive towards the compound,[4],five
same,% DNA in tail,SNU-449 cells,0.23 ± 0.16 0.52 ± 0.24 0.54 ± 0.11 0.15 ± 0.03%
same,% DNA in tail,SNU-398 cells,0.40 ± 0.14 0.65 ± 0.50 0.83 ± 0.53 0.28 ± 0.11%
same,% DNA in tail,JHH6 cells,1.17 ± 1.11 1.33 ± 0.66 1.69 ± 0.81 1.16 ± 0.53%
same,% DNA in tail,HepG2 cells,0.35 ± 0.21 0.83 ± 0.26 1.12 ± 0.72 1.55 ± 0.49 %
same,% DNA in tail,PLC/PRF cells,1.15 ± 1.25 1.04 ± 0.33 1.65 ± 1.55 1.09 ± 0.33%
same,% DNA in tail,HCC 1.2 cells,1.77 ± 1.64 16.3 ± 4.52* 17.1 ± 3.64* 8.87 ± 0.30 %
same,% DNA in tail,HepaRG cells [3],0.96 ± 0.59 1.47 ± 0.10 1.41 ± 1.04 5.09 ± 0.52 %
same,Result of SCGE experiments (in words),HepaRG cells [3],detected
same,% DNA in tail,SK-Hep1 cells,0.46 ± 0.16 0.70 ± 0.42 0.59 ± 0.24 0.37 ± 0.34%
same,% DNA in tail,WRL68 cells,0.43 ± 0.22 1.03 ± 0.74 0.93 ± 0.05 0.12 ± 0.01%
same,% DNA in tail,HuH6 cells,1.73 ± 2.62 2.91 ± 1.45 6.86 ± 1.74* 13.1 ± 4.41 %
aflatoxin B1 [AFB1],% DNA in tail,Hep3B cells,0.93 ± 0.86 1.35 ± 0.81 4.03 ± 1.93* 4.31 ± 0.92 %
same,% DNA in tail,HuH7 cells,6.29 ± 1.57 2.76 ± 0.52 3.12 ± 0.70 5.81 ± 4.64%
same,Number of the twelve lines sensitive towards the compound,[4],Seven out of twelve lines
same,% DNA in tail,SNU-449 cells,2.87 ± 2.05 2.04 ± 2.18 1.14 ± 1.95 3.37 ± 3.14%
same,% DNA in tail,SNU-398 cells,2.50 ± 1.08 2.53 ± 1.68 3.06 ± 0.28 2.83 ± 0.61%
same,% DNA in tail,HepG2 cells,1.02 ± 0.28 0.85 ± 0.41 2.96 ± 0.66* 5.17 ± 1.57 %
same,% DNA in tail,PLC/PRF cells,1.84 ± 1.44 4.57 ± 1.83 4.77 ± 1.75 6.68 ± 2.94 %
same,% DNA in tail,HCC 1.2 cells,1.38 ± 0.48 3.74 ± 2.69 4.02 ± 1.22 8.75 ± 1.48 %
same,% DNA in tail,HepaRG cells [3],4.16 ± 1.40 11.6 ± 1.50* 9.67 ± 2.17* 7.5 ± 1.76 %
same,Result of SCGE experiments (in words),HepaRG cells [3],detected
same,% DNA in tail,SK-Hep1 cells,0.60 ± 0.41 1.30 ± 0.37 1.13 ± 0.72 1.24 ± 0.88%
same,% DNA in tail,WRL68 cells,3.14 ± 1.66 2.32 ± 0.89 1.98 ± 0.41 1.72 ± 0.78%
same,% DNA in tail,HuH6 cells,1.50 ± 1.09 3.35 ± 2.75 7.20 ± 3.1* 11.9 ± 4.30 %
